This assay deals with T1, Recombinant human IKK2 (residues 1-737) (Homo sapiens, UniProt O14920).
T1 construct: Recombinant human IKK2 (residues 1-737) was expressed in baculovirus as a C-terminal GST-tagged fusion protein; GST (C); made in house
T1 sequence (O14920 1-737): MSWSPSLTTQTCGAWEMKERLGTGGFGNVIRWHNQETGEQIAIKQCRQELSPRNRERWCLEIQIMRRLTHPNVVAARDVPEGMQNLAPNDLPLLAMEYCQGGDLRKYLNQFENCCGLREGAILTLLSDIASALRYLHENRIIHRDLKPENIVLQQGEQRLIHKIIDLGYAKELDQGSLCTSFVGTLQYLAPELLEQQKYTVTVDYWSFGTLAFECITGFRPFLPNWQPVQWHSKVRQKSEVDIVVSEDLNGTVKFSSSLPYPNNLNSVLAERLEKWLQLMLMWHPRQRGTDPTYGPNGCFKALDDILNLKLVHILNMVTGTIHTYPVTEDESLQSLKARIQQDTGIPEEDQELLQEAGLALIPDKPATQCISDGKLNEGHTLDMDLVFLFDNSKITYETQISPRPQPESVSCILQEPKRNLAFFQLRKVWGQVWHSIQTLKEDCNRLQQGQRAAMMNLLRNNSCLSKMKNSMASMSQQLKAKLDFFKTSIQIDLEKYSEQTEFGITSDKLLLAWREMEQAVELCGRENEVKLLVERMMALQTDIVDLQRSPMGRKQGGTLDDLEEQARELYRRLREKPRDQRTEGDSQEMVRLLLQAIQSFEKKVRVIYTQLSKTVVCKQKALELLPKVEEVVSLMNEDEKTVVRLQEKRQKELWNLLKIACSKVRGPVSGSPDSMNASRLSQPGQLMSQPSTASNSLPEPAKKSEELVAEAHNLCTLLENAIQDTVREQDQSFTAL
Put plainly: IKK2 Assay (TR-FRET). Type of assay: biochemical. Conditions: IKK2 5 nM, GST-IκBα substrate 25 nM, ATP 1 μM, 30 minutes at room temperature. The protocol: Recombinant human IKK2 (residues 1-737) was expressed in baculovirus as a C-terminal GST-tagged fusion protein, and its activity was assessed using a time-resolved fluorescence resonance energy transfer (TR-FRET) assay. Briefly, IKK2 (5 nM final) diluted in assay buffer (50 mM HEPES, 10 mM MgCl2, 1 mM CHAPS pH 7.4 with 1 mM DTT and 0.01% w/v BSA) was added to wells containing various concentrations of compound or DMSO vehicle (3% final). The reaction was initiated by the addition of GST-IκBα substrate (25 nM final)/ATP (1 μM final), in a total volume of 30 μl. The reaction was incubated for 30 minutes at room temperature, then terminated by the addition of 15 μl of 50 mM EDTA. Detection reagent (15 μl) in buffer (100 mM HEPES pH 7.4, 150 mM NaCl and 0.1% w/v BSA) containing antiphosphoserine-IκBα-32/36 monoclonal antibody 12C2 (Cell Signalling Technology, Beverly Mass., USA) labelled with W-1024 europium chelate (Wallac O Y, Turku, Finland), and an APC-labelled anti-GST antibody (Prozyme, San Leandro, Calif., USA) was added and the reaction was further incubated for 60 minutes at room temperature. The degree of phosphorylation of GST-IκBα was measured using a Packard Discovery plate reader (Perkin-Elmer Life Sciences, Pangboume, UK) as a ratio of specific 665 nm energy transfer signal to reference europium 620 nm signal.
For the compound `NC(=O)c1cc(Br)cc2cc[nH]c12` [Intermediate 7, 5-bromo-1H-indole-7-carboxamide], the IC50 was below 15.8 µM.

Consider `NC(=O)c1cc(-c2ccc(Cl)cc2)cc2cc[nH]c12` [Example 7, 5-(4-chlorophenyl)-1H-indole-7-carboxamide], for which the IC50 was below 15.8 µM.

Regarding `NC(=O)c1cc(Br)cc2c(C3CCNCC3)c[nH]c12` [Intermediate 30, 5-bromo-3-(4-piperidinyl)-1H-indole-7-carboxamide], the IC50 is below 15.8 µM.

The values are drawn from patent US20080269200A1, “Indole Derivatives and Use Thereof as Kinase Inhibitors in Particular Ikk2 Inhibitors” (SmithKline Beecham Corporation, priority 2004, published 2008).
